From PubChem BioAssay (NCI)
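Grown in 96-well plates, cells were treated for 48 hours with each compound at five concentrations. Insufficient inhibition: endpoint recorded as highest concentration tested. TGI marks complete inhibition of growth.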

Tests used:
Assay in all cases: NCI anticancer screen, dose series, 48 h
[1] = tested on: 786-0 renal
[2] = tested on: A498 renal
[3] = tested on: A549 NSCLC
[4] = tested on: ACHN renal
[5] = tested on: BT-549 breast
[6] = tested on: CAKI-1 renal
[7] = tested on: CCRF-CEM leukemia
[8] = tested on: COLO 205 colon
[9] = tested on: DU-145 prostate
[10] = tested on: EKVX NSCLC
[11] = tested on: HCC-2998 colon
[12] = tested on: HCT-116 colon
[13] = tested on: HCT-15 colon
[14] = tested on: HL-60(TB) leukemia
[15] = tested on: HOP-62 NSCLC
[16] = tested on: HOP-92 NSCLC
[17] = tested on: HS 578T breast
[18] = tested on: HT29 colon
[19] = tested on: IGROV1 ovarian
[20] = tested on: K-562 leukemia
[21] = tested on: KM12 colon
[22] = tested on: LOX IMVI melanoma
[23] = tested on: M14 melanoma
[24] = tested on: MCF7 breast
[25] = tested on: MDA-MB-231 breast
[26] = tested on: MDA-MB-435
[27] = tested on: MDA-N
[28] = tested on: MOLT-4 leukemia
[29] = tested on: NCI-H226 lung
[30] = tested on: NCI-H23 lung
[31] = tested on: NCI-H460 lung
[32] = tested on: NCI-H522 lung
[33] = tested on: NCI/ADR-RES ovarian
[34] = tested on: OVCAR-3 ovarian
[35] = tested on: OVCAR-5 ovarian
[36] = tested on: OVCAR-8 ovarian
[37] = tested on: PC-3 prostate
[38] = tested on: RPMI-8226 leukemia
[39] = tested on: RXF 393 renal
[40] = tested on: SF-268 CNS
[41] = tested on: SF-295 CNS
[42] = tested on: SF-539 CNS
[43] = tested on: SK-MEL-2 melanoma
[44] = tested on: SK-MEL-28 melanoma
[45] = tested on: SK-MEL-5 melanoma
[46] = tested on: SK-OV-3 ovarian
[47] = tested on: SN12C renal
[48] = tested on: SNB-19 CNS
[49] = tested on: SNB-75 CNS
[50] = tested on: SW-620 colon
[51] = tested on: T-47D breast
[52] = tested on: TK-10 renal
[53] = tested on: U251 CNS
[54] = tested on: UACC-257 melanoma
[55] = tested on: UACC-62 melanoma
[56] = tested on: MALME-3M melanoma
[57] = tested on: OVCAR-4 ovarian
[58] = tested on: UO-31 renal
[59] = tested on: SR leukemia

Measured: TGI

C[C@@H](CC(=O)O)OC1OC(COC(=O)C(C)(C)C)C(OC(=O)C(C)(C)C)C(OC(=O)C(C)(C)C)C1OC(=O)C(C)(C)C (stereo not given in full)
64.4 µM: [4]
71.8 µM: [38]
81.3 µM: [28]
46.3 µM: [14]
98.2 µM: [48]
84.9 µM: [13]
55.9 µM: [7]
98.4 µM: [45]
75.7 µM: [31]
93.5 µM: [30]
not listed: [56] | [57] | [58] | [59]
> 100 µM: all other assays above

CSc1nc(Nc2ccccc2Cl)c2c(N)nn(C)c2n1
26 µM: [4]
63.5 µM: [51]
not listed: [14] | [16] | [24] | [42] | [49] | [59]
> 100 µM: all other assays above

CN(C)CCCNc1ccc2nnn3c4ccc(OC(=O)c5ccccc5)cc4c(=O)c1c23
9.41 µM: [28]
24.7 µM: [12]
39.8 µM: [36]
22.7 µM: [42]
17.5 µM: [1]
30.2 µM: [44]
10.5 µM: [32]
30.4 µM: [35]
23.3 µM: [21]
25.5 µM: [38]
33.7 µM: [13]
36.6 µM: [17]
26.1 µM: [11]
37.9 µM: [33]
11.7 µM: [57]
28.3 µM: [23]
32.7 µM: [5]
36.3 µM: [19]
7.98 µM: [7]
28.9 µM: [8]
25.2 µM: [31]
20.2 µM: [10]
29.6 µM: [55]
27.3 µM: [25]
23.7 µM: [3]
19.1 µM: [26]
25.4 µM: [2] | [47] | [48]
42.9 µM: [46]
32.2 µM: [30]
24.3 µM: [41] | [52]
25.6 µM: [40]
4.49 µM: [20]
32.9 µM: [43]
20.8 µM: [58]
22.2 µM: [18]
15.2 µM: [22]
10.7 µM: [6]
30 µM: [24]
29.2 µM: [56]
24.9 µM: [34]
37.5 µM: [51]
22.9 µM: [9]
21.2 µM: [50]
12.8 µM: [39]
23.8 µM: [37]
16.5 µM: [4]
39.2 µM: [16]
29 µM: [53]
30.1 µM: [27]
2.61 µM: [59]
20.9 µM: [15]
34.3 µM: [54]

CC1=NN(c2nc(N)nc(CSc3cc(Cl)c(C)cc3S(N)(=O)=O)n2)C(C)(C)C1
0.953 µM: [58]
not listed: [16] | [59]
> 10 µM: all other assays above
